These results are taken from ChEMBL document CHEMBL3508693 (2016).

Data set [1] can be described thus: % SPP100 recovered in hydrolysed following single intravenous administration of 10 mg.Kg-1 [14C] aliskiren hemifumarate in male rat. Type of data set: ADME, organism-based, HAN:WIST(SPF), Bile. Conditions: in vivo.
A further data set addresses T1, CYP1A2 (Homo sapiens, UniProt P05177).
T1 sequence (P05177 whole entry): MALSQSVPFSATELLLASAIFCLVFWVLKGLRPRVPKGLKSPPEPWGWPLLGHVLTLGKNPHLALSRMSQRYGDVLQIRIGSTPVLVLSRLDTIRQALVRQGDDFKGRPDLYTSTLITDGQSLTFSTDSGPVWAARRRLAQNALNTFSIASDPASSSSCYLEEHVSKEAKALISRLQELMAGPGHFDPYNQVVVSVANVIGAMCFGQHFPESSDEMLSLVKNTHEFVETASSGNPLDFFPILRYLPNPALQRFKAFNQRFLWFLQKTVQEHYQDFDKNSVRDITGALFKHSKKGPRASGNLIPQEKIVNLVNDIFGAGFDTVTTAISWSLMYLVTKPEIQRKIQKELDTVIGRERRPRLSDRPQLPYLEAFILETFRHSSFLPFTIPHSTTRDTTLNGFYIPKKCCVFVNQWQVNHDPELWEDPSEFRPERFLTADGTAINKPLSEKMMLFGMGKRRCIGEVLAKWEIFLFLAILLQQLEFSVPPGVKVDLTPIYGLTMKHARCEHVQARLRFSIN
Put plainly: Inhibition of CYP1A2 in human liver microsomes from 10 healthy donors at 200 uM aliskiren (SPP100). Type of data set: ADME, Microsome. Set-up: conc 200 uM. Conditions: probe phenacetin (O-deethylation).

Data set [2] is described as follows: % SPP100 recovered of receiver rat following duodenal infusion of radioactivity through bile from donor rat treated with single intravenous administration of 10 mg.Kg-1 [14C] aliskiren hemifumarate. It counts as ADME, organism-based, HAN:WIST(SPF). The note with it: in vivo.
Data set [3] can be described thus: AUC (0-96 or 0-168h) of total radioactivity following single oral administration of [14C] aliskiren hemifumarate at 3 mg.Kg-1 level in marmoset. It counts as ADME, organism-based, Callithrix jacchus, Plasma. The note with it: in vivo.
The nature of data set [4]: Concentration of radioactivity in the kidney medulla following repeated oral administration of [14C] aliskiren hemifumarate at 100 mg.Kg-1 level studied at 2h after 10th dose in rat. Conditions: in vivo. It counts as ADME, organism-based, Albino HAN:WIST, Renal medulla.
For a further data set, the target named is Cytochrome P450 3A4/3A5 (Homo sapiens, UniProt P08684+P20815). Put plainly: Estimated contribution of CYP3A4/5 to oxidative metabolism of [14C] aliskiren hemifumarate based on studies with microsomes from baculovirus-infected insect cells expressing recombinant human CYP450s and studies with pooled human liver microsomes from 22 donors. It counts as ADME, Microsome.

Data set [5] can be described thus: Mean excretion of radioactivity (48-72h) in urine and faeces following single oral dose of 100 mg.Kg-1 [14C] aliskiren hemifumarate in rat. It counts as ADME, organism-based, Albino HAN:WIST, Urine/Feces. Conditions: in vivo.
A short description of data set [6]: Concentration of radioactivity in the kidney medulla following repeated oral administration of [14C] aliskiren hemifumarate at 100 mg.Kg-1 level studied at 24h after 10th dose in rat. Type of data set: ADME, organism-based, Albino HAN:WIST, Renal medulla. Conditions: in vivo.
Data set [7] in a line: Absorption (0-168h) of total radioactivity following single oral administration of [14C] aliskiren hemifumarate at 3 mg.Kg-1 level in marmoset. It counts as ADME, organism-based, Callithrix jacchus, Plasma. Conditions: in vivo.
For another data set, the target named is T2, Cytochrome P450 4F2 (Homo sapiens, UniProt P78329).
T2 sequence (P78329 whole entry): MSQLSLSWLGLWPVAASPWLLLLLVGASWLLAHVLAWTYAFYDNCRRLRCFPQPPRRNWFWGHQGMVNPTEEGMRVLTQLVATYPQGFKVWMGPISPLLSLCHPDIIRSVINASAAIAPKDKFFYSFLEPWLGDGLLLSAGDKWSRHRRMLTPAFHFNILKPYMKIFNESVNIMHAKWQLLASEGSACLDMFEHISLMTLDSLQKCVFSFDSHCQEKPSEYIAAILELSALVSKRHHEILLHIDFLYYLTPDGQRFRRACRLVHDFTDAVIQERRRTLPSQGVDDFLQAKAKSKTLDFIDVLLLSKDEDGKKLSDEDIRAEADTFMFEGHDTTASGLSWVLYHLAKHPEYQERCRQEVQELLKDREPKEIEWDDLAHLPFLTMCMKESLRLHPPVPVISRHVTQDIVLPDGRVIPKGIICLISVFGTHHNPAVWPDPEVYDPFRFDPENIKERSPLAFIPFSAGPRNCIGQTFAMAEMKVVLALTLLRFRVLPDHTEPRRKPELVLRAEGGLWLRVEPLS
Kind of data set: Metabolic clearance (ul.min.nmol-1 CYP) of aliskiren hemifumarate for CYP4F2 was determined in human liver microsome incubated with [14C]SPP100 hemifumarate. The note with it: microsomes. It counts as ADME.

A short description of data set [8]: Concentration of radioactivity in the kidney medulla following repeated oral administration of [14C] aliskiren hemifumarate at 100 mg.Kg-1 level studied at 2h after 7th dose in rat. Type of data set: ADME, organism-based, Albino HAN:WIST, Renal medulla. Conditions: in vivo.
A short description of data set [9]: Concentration of radioactivity in the colon wall following repeated oral administration of [14C] aliskiren hemifumarate at 100 mg.Kg-1 level studied at 2h after 3rd dose in rat. It counts as ADME, organism-based, Albino HAN:WIST. The note with it: in vivo.
The nature of data set [10]: Total excretion (0-72h) of radioactivity in urine, faeces and cage wash following single oral dose of 500 mg.Kg-1 [14C] aliskiren hemifumarate in mouse. Type of data set: ADME, organism-based, TgRasH2, Urine/Feces. The note with it: in vivo.
The nature of data set [11]: Tmax of aliskiren hemifumarate following 2 week oral dosing of aliskiren hemifumarate at 50 mg.Kg-1 level studied on day 1 in male Callithrix jacchus. Type of data set: ADME, organism-based. Conditions: marmoset, plasma.
Data set [12] in a line: Cmax (0-168h) of unlabeled aliskiren hemifumarate following single oral administration of aliskiren hemifumarate at 3 mg.Kg-1 level in marmoset. It counts as ADME, organism-based, Callithrix jacchus, Plasma. Conditions: in vivo.
The nature of data set [13]: AUCspec of aliskiren hemifumarate following 2 week oral dosing of aliskiren hemifumarate at 100 mg.Kg-1 level studied on day 14 in female Callithrix jacchus. The note with it: marmoset, in vivo, 336 h. Type of data set: ADME, organism-based, Plasma.
Data set [14] in a line: t1/2 of aliskiren hemifumarate following 2 week oral dosing of aliskiren hemifumarate at 50 mg.Kg-1 level studied on day 14 in female Callithrix jacchus. It counts as ADME, organism-based. The note with it: marmoset, plasma.
A short description of data set [15]: Tmax of aliskiren hemifumarate following 4 week oral dietary dosing of aliskiren hemifumarate at 1500 mg.Kg-1 level in male mouse. Conditions: CB6F1-TGrasH2, mouse, in vivo. It counts as ADME, organism-based.
Data set [16] can be described thus: Effect of 2 week oral dosing of aliskiren hemifumarate at 100 mg.Kg-1 level on plasma magnesium level in male Callithrix jacchus. Type of data set: toxicity, organism-based. The note with it: marmoset, 336 h.
Data set [17] can be described thus: Cmax of aliskiren hemifumarate following 4 week oral dietary dosing of aliskiren hemifumarate at 500 mg.Kg-1 level in male mouse. Type of data set: ADME, organism-based. Conditions: CB6F1-TGrasH2, mouse, in vivo.
The nature of data set [18]: Cmax of aliskiren hemifumarate following 2 week oral dosing of aliskiren hemifumarate at 100 mg.Kg-1 level studied on day 1 in female Callithrix jacchus. Type of data set: ADME, organism-based. The note with it: marmoset, plasma.
Data set [19] is described as follows: Cmaxspec of aliskiren hemifumarate following 2 week oral dosing of aliskiren hemifumarate at 100 mg.Kg-1 level studied on day 14 in male Callithrix jacchus. Type of data set: ADME, organism-based, Plasma. Conditions: marmoset, in vivo, 336 h.
The nature of data set [20]: AUC(0-24h) of aliskiren hemifumarate following 2 week oral dosing of aliskiren hemifumarate at 100 mg.Kg-1 level studied on day 14 in female Callithrix jacchus. Type of data set: ADME, organism-based. Conditions: marmoset, plasma.
Data set [21] can be described thus: AUC (0-24h)/dose of aliskiren hemifumarate following 4 week oral dietary dosing of aliskiren hemifumarate at 500 mg.Kg-1 level in male mouse. It counts as ADME, organism-based, CB6F1-TGrasH2, Plasma. Conditions: in vivo.
The nature of data set [22]: AUC (0-24h) of aliskiren hemifumarate following 4 week oral dietary dosing of aliskiren hemifumarate at 1500 mg.Kg-1 level in male mouse. Conditions: CB6F1-TGrasH2, mouse, plasma. It counts as ADME, organism-based.
A short description of data set [23]: Tmax (0-96h) of unlabeled aliskiren hemifumarate following intravenous administration of aliskiren hemifumarate at 10 mg.Kg-1 level in rat. Conditions: Albino HAN:WIST, plasma. Type of data set: ADME, organism-based.

SMILES strings stand for the structures.

In general, inhibition refers to the drop in the measured response relative to a control, in per cent. Low readings indicate little suppression, high ones strong suppression. As to `COCCCOc1cc(C[C@@H](C[C@H](N)[C@@H](O)C[C@H](C(=O)NCC(C)(C)C(N)=O)C(C)C)C(C)C)ccc1OC`, the values for the Compound recovery in data set [1] and in [2] were 61.8% and 60.4%, respectively. Besides, at 200 µM the inhibition on CYP1A2 was 15.2%.
Broadly, the AUC is concentration integrated over time. For the molecule `COCCCOc1cc(C[C@@H](C[C@H](N)[C@@H](O)C[C@H](C(=O)NCC([14CH3])([14CH3])C(N)=O)C(C)C)C(C)C)ccc1OC.O=C(O)/C=C/C(=O)O`, the AUC in [3] was determined as 4.84 µM·h. Also, the Radiolabel recovery entry in [4] was “OUTCOME = Detected”; in [5], 16.3%; in [6], “OUTCOME = Detected”; in data set [8] it was “OUTCOME = Detected”; in data set [9], “OUTCOME = Observed, VALUE = Highest radioactivity concentration was observed”; in [10] it was 94.44%. For the same molecule, the Activity at Cytochrome P450 3A4/3A5 is listed as 99.6%. Further, the Absorption in data set [7] came out at 25%. This molecule also gave a CL at Cytochrome P450 4F2 of 7.9 µL·min/nmol.
By Tmax is commonly meant the time at which the peak concentration occurs. A word on the Cmax: it is the peak of the concentration-time curve. One may read the half-life as how long it takes for the measured level to halve. Low readings indicate rapid decline, high ones slow decline. By AUC(0-t) is commonly meant exposure summed from dosing to a finite time, without extrapolation to infinity. Read a high AUC(0-t) as more exposure. `COCCCOc1cc(C[C@@H](C[C@H](N)[C@@H](O)C[C@H](C(=O)NCC(C)(C)C(N)=O)C(C)C)C(C)C)ccc1OC.COCCCOc1cc(C[C@@H](C[C@H](N)[C@@H](O)C[C@H](C(=O)NCC(C)(C)C(N)=O)C(C)C)C(C)C)ccc1OC.O=C(O)/C=C/C(=O)O` [ALISKIREN FUMARATE]: the Tmax came to 1 h in data set [11], 3 h in [15] and 4.98 min in [23]. The results for the Cmax in data set [12], in data set [17] and in data set [18] were 395 nM, 312 ng/mL and 7940 ng/mL, respectively. Further, the AUC normalised in [13] is 1.42 ((ug.h.ml-1)/(mg/kg); in data set [21] it was 3.41 ((ng/mL).hours)/(mg/kg/day). The same molecule showed a half-life in data set [14] of 8.19 h. In addition, the “Plasma magnesium_CHANGE_BY” value in data set [16] is reported as 130%. Also, the Cmax normalised in data set [19] is reported as 0.097 (ug/ml)/(mg/kg). In data set [20], the AUC at 24 h came out at 142000 ng·h/mL. This molecule also had an AUC(0-t) at 24 h in data set [22] of 4140 ng·h/mL.
